Results taken from US20210371413A1, “POLYCYCLIC AMIDES AS CYTOTOXIC AGENTS” (FEMTOGENIX LIMITED, priority 2018, published 2021).

How the values were obtained:
[1] = test system: 5′-AAAAAAAGAAAAAATIT-3′ (poly AT) DNA duplex; test: FRET DNA melting, poly AT duplex; type: binding; conditions: fragments of 15, FIG. 3; duplex not specified
Protocol: FRET DNA melting studies were undertaken on 15 and 16 using two fluorescently labelled sequences. The sequences (FIG. 1) were designed to represent poly AT and poly GC sequences.
The short duplexes used in this FRET study are relatively unstable in the duplex form with a melting temperature below 30° C. so that, in the absence of ligand, a large part of the melting occurs below the starting temperature of the experiment. However, it can be observed that 15 stabilizes the duplex form, producing increases in melting temperature with ΔTm values of […] for 5′-AAAAAAAGAAAAAATIT-3′ (FIG. 2, top panel), and ˜25° C. (FIG. 2, bottom panel).
Oligonucleotides were obtained from ATDbio (Southampton, UK) in lyophilised form. […]
The reaction mixture was comprised of 4 μL of 250 mM phosphate buffer (final concentration of 50 mM), 4 μL flourophor and 4 μL quencher molecule of the appropriate oligonucleotide for a final concentration of 0.2 μM, 4 μL 5 M sodium chloride (final concentration of 1 M NaCl), and 4 μL of distilled H2O. […] This mixture was analysed without prior annealing.
Fluorescence melting profiles were measured using a Roche LightCycler using a total reaction volume of 20 μL. […] Annealing steps and melting steps were all recorded and changes in fluorescence were measured at 520 nm. […]

[2] = test system: calf thymus DNA; conditions: cited from earlier work

With `Cn1cc(N)cc1C(=O)Nc1ccc(-c2cc(C(=O)Nc3ccc(N)cc3)n(C)c2)cc1` [Compound 32, 4-Amino-N-(4-(5-((4-aminophenyl)carbamoyl)-1-methyl-1H-pyrrol-3-yl)phenyl)-1-methyl-1H-pyrrole-2-carboxamide] the “DNA stabilisation (FRET denaturation)” value [1] was “failed to stabilise DNA”.
For `COc1cc2c(cc1O)N=C[C@@H]1CCCCN1C2=O` [Compound 28, (S)-3-Hydroxy-2-methoxy-7,8,9,10-tetrahydrobenzo[e]-pyrido[1,2-a][1,4]diazepin-12(6aH)-one], the “DNA stabilisation (FRET denaturation)” value [1] was “failed to stabilise DNA”.
For `Cc1ccc2c(c1O)NC(O)C1CC(/C=C/C(N)=O)=CN1C2=O` (stereo not drawn) [anthramycin], the “thermal stabilization (ΔTm)” value [2] is listed as 13.1 °C.
